Results reported in US10448639B2, “Fungicidal pyrazoles” (FMC CORPORATION, priority 2009, dated 2019).

system: Puccinia recondita f. sp. tritici; experiment: Test I: wheat leaf rust, preventive spray on wheat seedlings, visual disease rating; conditions: wheat leaf rust, preventive spray; 100 = 100% disease control, 0 = no control

Row | SMILES | Test I rating (% disease control)
1 | COc1cc(F)c(-c2c(C)nn(C)c2Oc2c(F)cc(N)cc2F)c(F)c1 [compound 77] | 97%
2 | COc1ccc(Nc2c(-c3c(F)cc(C#N)cc3F)c(C)nn2C)cc1F [compound 113] | 95%
3 | COc1cc(F)c(-c2c(C)nn(C)c2Oc2ccc(Cl)cc2Cl)c(F)c1 [compound 40] | 99%
4 | Cc1nn(C)c(Nc2cccc(F)c2)c1-c1c(F)cc(C#N)cc1F [compound 136] | 99%
5 | Cc1nn(C)c(Nc2ccc(F)cc2)c1-c1c(F)cc(C#N)cc1F [compound 111] | 97%
6 | Cc1nn(C)c(Nc2c(F)cc(F)cc2F)c1-c1ccc(Cl)cc1Cl [compound 75] | 99%

same assay, conditions: wheat leaf rust, preventive; 100 = 100% disease control, 0 = no control relative to controls

Row | SMILES | Test I rating (% disease control)
7 | Cc1nn(C)c(Nc2c(F)cc(C#N)cc2F)c1-c1ccc(F)cc1F [compound 290] | 100%
8 | Cc1nn(C)c(Nc2cncnc2)c1-c1ccc(F)cc1Cl [compound 270] | 0%
9 | Cc1nn(C)c(Nc2ncc(F)cc2F)c1-c1c(F)cccc1C(F)(F)F [compound 264] | 99%

system: Botrytis cinerea; experiment: Test B: tomato Botrytis, preventive spray on tomato seedlings, visual disease rating; conditions: tomato Botrytis, preventive spray; 100 = 100% disease control, 0 = no control

Row | SMILES | Test B rating (% disease control)
10 | COc1cc(F)c(-c2c(C)nn(C)c2Oc2c(F)cc(N)cc2F)c(F)c1 [compound 77] | 99%
11 | COc1ccc(Nc2c(-c3c(F)cc(C#N)cc3F)c(C)nn2C)cc1F [compound 113] | 99%
12 | COc1cc(F)c(-c2c(C)nn(C)c2Oc2ccc(Cl)cc2Cl)c(F)c1 [compound 40] | 99%
13 | Cc1nn(C)c(Nc2cccc(F)c2)c1-c1c(F)cc(C#N)cc1F [compound 136] | 99%
14 | Cc1nn(C)c(Nc2ccc(F)cc2)c1-c1c(F)cc(C#N)cc1F [compound 111] | 99%
15 | Cc1nn(C)c(Nc2c(F)cc(F)cc2F)c1-c1ccc(Cl)cc1Cl [compound 75] | 100%

same assay, conditions: tomato Botrytis; 100 = 100% disease control, 0 = no control relative to controls

Row | SMILES | Test B rating (% disease control)
16 | Cc1nn(C)c(Nc2c(F)cc(C#N)cc2F)c1-c1ccc(F)cc1F [compound 290] | 100%
17 | Cc1nn(C)c(Nc2cncnc2)c1-c1ccc(F)cc1Cl [compound 270] | 92%
18 | Cc1nn(C)c(Nc2ncc(F)cc2F)c1-c1c(F)cccc1C(F)(F)F [compound 264] | 100%

system: Septoria tritici; experiment: Test G: wheat leaf blotch, preventive spray on wheat seedlings, visual disease rating; conditions: wheat leaf blotch, preventive spray; 100 = 100% disease control, 0 = no control

Row | SMILES | Test G rating (% disease control)
19 | COc1cc(F)c(-c2c(C)nn(C)c2Oc2c(F)cc(N)cc2F)c(F)c1 [compound 77] | 95%
20 | COc1ccc(Nc2c(-c3c(F)cc(C#N)cc3F)c(C)nn2C)cc1F [compound 113] | 100%
21 | COc1cc(F)c(-c2c(C)nn(C)c2Oc2ccc(Cl)cc2Cl)c(F)c1 [compound 40] | 94%
22 | Cc1nn(C)c(Nc2cccc(F)c2)c1-c1c(F)cc(C#N)cc1F [compound 136] | 99%
23 | Cc1nn(C)c(Nc2ccc(F)cc2)c1-c1c(F)cc(C#N)cc1F [compound 111] | 99%
24 | Cc1nn(C)c(Nc2c(F)cc(F)cc2F)c1-c1ccc(Cl)cc1Cl [compound 75] | 99%

same assay, conditions: wheat leaf blotch; 100 = 100% disease control, 0 = no control relative to controls

Row | SMILES | Test G rating (% disease control)
25 | Cc1nn(C)c(Nc2c(F)cc(C#N)cc2F)c1-c1ccc(F)cc1F [compound 290] | 100%
26 | Cc1nn(C)c(Nc2cncnc2)c1-c1ccc(F)cc1Cl [compound 270] | 91%
27 | Cc1nn(C)c(Nc2ncc(F)cc2F)c1-c1c(F)cccc1C(F)(F)F [compound 264] | 92%

system: Alternaria solani; experiment: Test C: tomato early blight, preventive spray on tomato seedlings, visual disease rating; conditions: tomato early blight, preventive spray; 100 = 100% disease control, 0 = no control

Row | SMILES | Test C rating (% disease control)
28 | COc1cc(F)c(-c2c(C)nn(C)c2Oc2c(F)cc(N)cc2F)c(F)c1 [compound 77] | 0%
29 | COc1ccc(Nc2c(-c3c(F)cc(C#N)cc3F)c(C)nn2C)cc1F [compound 113] | 47%
30 | COc1cc(F)c(-c2c(C)nn(C)c2Oc2ccc(Cl)cc2Cl)c(F)c1 [compound 40] | 0%
31 | Cc1nn(C)c(Nc2cccc(F)c2)c1-c1c(F)cc(C#N)cc1F [compound 136] | 71%
32 | Cc1nn(C)c(Nc2ccc(F)cc2)c1-c1c(F)cc(C#N)cc1F [compound 111] | 75%
33 | Cc1nn(C)c(Nc2c(F)cc(F)cc2F)c1-c1ccc(Cl)cc1Cl [compound 75] | 98%

same assay, conditions: tomato early blight; 100 = 100% disease control, 0 = no control relative to controls

Row | SMILES | Test C rating (% disease control)
34 | Cc1nn(C)c(Nc2c(F)cc(C#N)cc2F)c1-c1ccc(F)cc1F [compound 290] | 99%
35 | Cc1nn(C)c(Nc2cncnc2)c1-c1ccc(F)cc1Cl [compound 270] | 86%
36 | Cc1nn(C)c(Nc2ncc(F)cc2F)c1-c1c(F)cccc1C(F)(F)F [compound 264] | 98%

system: Erysiphe graminis f sp. tritici; experiment: Test J: wheat powdery mildew, preventive spray on wheat seedlings, visual disease rating; conditions: wheat powdery mildew, preventive spray; 100 = 100% disease control, 0 = no control

Row | SMILES | Test J rating (% disease control)
37 | COc1cc(F)c(-c2c(C)nn(C)c2Oc2c(F)cc(N)cc2F)c(F)c1 [compound 77] | 0%
38 | COc1ccc(Nc2c(-c3c(F)cc(C#N)cc3F)c(C)nn2C)cc1F [compound 113] | 48%
39 | COc1cc(F)c(-c2c(C)nn(C)c2Oc2ccc(Cl)cc2Cl)c(F)c1 [compound 40] | 99%
40 | Cc1nn(C)c(Nc2cccc(F)c2)c1-c1c(F)cc(C#N)cc1F [compound 136] | 100%
41 | Cc1nn(C)c(Nc2ccc(F)cc2)c1-c1c(F)cc(C#N)cc1F [compound 111] | 99%
42 | Cc1nn(C)c(Nc2c(F)cc(F)cc2F)c1-c1ccc(Cl)cc1Cl [compound 75] | 97%

same assay, conditions: wheat powdery mildew; 100 = 100% disease control, 0 = no control relative to controls

Row | SMILES | Test J rating (% disease control)
43 | Cc1nn(C)c(Nc2c(F)cc(C#N)cc2F)c1-c1ccc(F)cc1F [compound 290] | 100%
44 | Cc1nn(C)c(Nc2cncnc2)c1-c1ccc(F)cc1Cl [compound 270] | 81%
45 | Cc1nn(C)c(Nc2ncc(F)cc2F)c1-c1c(F)cccc1C(F)(F)F [compound 264] | 98%

system: Septoria nodorum; experiment: Test F: Septoria glume blotch, preventive spray on wheat seedlings, visual disease rating; conditions: Septoria glume blotch on wheat, preventive spray; 100 = 100% disease control, 0 = no control

Row | SMILES | Test F rating (% disease control)
46 | COc1cc(F)c(-c2c(C)nn(C)c2Oc2c(F)cc(N)cc2F)c(F)c1 [compound 77] | 0%
47 | COc1ccc(Nc2c(-c3c(F)cc(C#N)cc3F)c(C)nn2C)cc1F [compound 113] | 0%
48 | COc1cc(F)c(-c2c(C)nn(C)c2Oc2ccc(Cl)cc2Cl)c(F)c1 [compound 40] | 0%
49 | Cc1nn(C)c(Nc2cccc(F)c2)c1-c1c(F)cc(C#N)cc1F [compound 136] | 86%
50 | Cc1nn(C)c(Nc2ccc(F)cc2)c1-c1c(F)cc(C#N)cc1F [compound 111] | 90%
51 | Cc1nn(C)c(Nc2c(F)cc(F)cc2F)c1-c1ccc(Cl)cc1Cl [compound 75] | 98%

same assay, conditions: Septoria glume blotch; 100 = 100% disease control, 0 = no control relative to controls

Row | SMILES | Test F rating (% disease control)
52 | Cc1nn(C)c(Nc2c(F)cc(C#N)cc2F)c1-c1ccc(F)cc1F [compound 290] | 87%
53 | Cc1nn(C)c(Nc2cncnc2)c1-c1ccc(F)cc1Cl [compound 270] | 0%
54 | Cc1nn(C)c(Nc2ncc(F)cc2F)c1-c1c(F)cccc1C(F)(F)F [compound 264] | 0%

system: Puccinia recondita f. sp. tritici; experiment: Test H: wheat leaf rust, curative spray on inoculated wheat seedlings, visual disease rating; conditions: wheat leaf rust, curative spray; 100 = 100% disease control, 0 = no control
Text: General protocol for preparing test suspensions for Tests A-J: the test compounds were first dissolved in acetone in an amount equal to 3% of the final volume and then suspended at the desired concentration (in ppm) in acetone and purified water (50/50 mix by volume) containing 250 ppm of the surfactant Trem® 014 (polyhydric alcohol esters). The resulting test suspensions were then used in Tests A-J. Spraying a 200 ppm test suspension to the point of run-off on the test plants was the equivalent of a rate of 500 g/ha. Unless otherwise indicated, the rating values indicate a 200 ppm test suspension was used. (An asterisk “*” next to the rating value indicates a 40 ppm test suspension was used.)
Wheat seedlings were inoculated with a spore suspension of Puccinia recondita f. sp. tritici (the causal agent of wheat leaf rust) and incubated in a saturated atmosphere at 20° C. for 24 h, and then moved to a growth chamber at 20° C. for 2 days. At the end of this time the test suspension was sprayed to the point of run-off, and then the seedlings were moved to a growth chamber at 20° C. for 6 days after which time visual disease ratings were made.

Row | SMILES | Test H rating (% disease control)
55 | COc1cc(F)c(-c2c(C)nn(C)c2Oc2c(F)cc(N)cc2F)c(F)c1 [compound 77] | 6%
56 | COc1ccc(Nc2c(-c3c(F)cc(C#N)cc3F)c(C)nn2C)cc1F [compound 113] | 8%
57 | COc1cc(F)c(-c2c(C)nn(C)c2Oc2ccc(Cl)cc2Cl)c(F)c1 [compound 40] | 92%
58 | Cc1nn(C)c(Nc2cccc(F)c2)c1-c1c(F)cc(C#N)cc1F [compound 136] | 0%
59 | Cc1nn(C)c(Nc2ccc(F)cc2)c1-c1c(F)cc(C#N)cc1F [compound 111] | 0%
60 | Cc1nn(C)c(Nc2c(F)cc(F)cc2F)c1-c1ccc(Cl)cc1Cl [compound 75] | 95%

same assay, conditions: wheat leaf rust, curative; 100 = 100% disease control, 0 = no control relative to controls

Row | SMILES | Test H rating (% disease control)
61 | Cc1nn(C)c(Nc2c(F)cc(C#N)cc2F)c1-c1ccc(F)cc1F [compound 290] | 0%
62 | Cc1nn(C)c(Nc2cncnc2)c1-c1ccc(F)cc1Cl [compound 270] | 8%
63 | Cc1nn(C)c(Nc2ncc(F)cc2F)c1-c1c(F)cccc1C(F)(F)F [compound 264] | 0%
